Several values for one entry are separate records, joined by “and”; a condition that tells them apart may be missing. Equal values may be shown once. Read-outs that look alike come from different tables or passages of the source. Peptide text beside a SMILES is read from it.

One data set has as its target ACE. The following applies: read-out: Kiu, cited from earlier work.
In data set [1] the target is T1, angiotensin-converting enzyme (ACE) (Oryctolagus cuniculus, UniProt P12822).
T1 construct: Angiotensin-I-converting enzyme (rabbit lung); purchased Sigma Chemical Co., (St Louis, MO, USA); host or cells: rabbit lung tissue
T1 sequence (P12822 34-1310): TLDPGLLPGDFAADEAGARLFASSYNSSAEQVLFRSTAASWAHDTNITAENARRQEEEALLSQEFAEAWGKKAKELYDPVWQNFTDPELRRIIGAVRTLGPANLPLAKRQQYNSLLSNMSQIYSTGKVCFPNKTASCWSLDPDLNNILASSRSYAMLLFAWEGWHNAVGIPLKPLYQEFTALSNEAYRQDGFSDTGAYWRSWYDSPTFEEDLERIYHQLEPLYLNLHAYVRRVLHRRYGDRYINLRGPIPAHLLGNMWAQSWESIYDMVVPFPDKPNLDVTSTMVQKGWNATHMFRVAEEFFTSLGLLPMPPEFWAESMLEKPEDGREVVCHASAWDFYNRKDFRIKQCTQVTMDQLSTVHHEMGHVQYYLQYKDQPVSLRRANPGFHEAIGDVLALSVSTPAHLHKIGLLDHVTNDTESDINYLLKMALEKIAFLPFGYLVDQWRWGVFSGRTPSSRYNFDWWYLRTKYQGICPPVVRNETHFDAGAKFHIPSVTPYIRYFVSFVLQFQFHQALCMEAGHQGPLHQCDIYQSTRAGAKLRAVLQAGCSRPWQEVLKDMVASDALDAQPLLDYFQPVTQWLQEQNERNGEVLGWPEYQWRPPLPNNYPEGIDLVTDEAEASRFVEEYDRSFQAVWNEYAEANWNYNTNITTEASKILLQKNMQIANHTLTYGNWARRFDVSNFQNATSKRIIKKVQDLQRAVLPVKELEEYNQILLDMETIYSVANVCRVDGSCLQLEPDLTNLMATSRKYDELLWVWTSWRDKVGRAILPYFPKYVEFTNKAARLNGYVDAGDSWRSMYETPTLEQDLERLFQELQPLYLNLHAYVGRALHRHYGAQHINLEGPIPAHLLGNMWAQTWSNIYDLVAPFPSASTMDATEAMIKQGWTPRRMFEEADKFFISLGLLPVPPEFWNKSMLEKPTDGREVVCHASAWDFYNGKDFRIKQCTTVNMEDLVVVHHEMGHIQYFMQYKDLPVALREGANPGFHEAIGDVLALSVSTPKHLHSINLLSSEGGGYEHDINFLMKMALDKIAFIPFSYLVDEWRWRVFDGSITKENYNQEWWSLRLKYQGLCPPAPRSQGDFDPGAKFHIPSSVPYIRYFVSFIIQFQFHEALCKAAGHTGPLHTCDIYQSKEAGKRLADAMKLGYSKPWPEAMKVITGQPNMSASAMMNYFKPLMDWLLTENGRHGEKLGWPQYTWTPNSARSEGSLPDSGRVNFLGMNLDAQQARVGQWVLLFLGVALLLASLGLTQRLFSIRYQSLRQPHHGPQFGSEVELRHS
Nature of the data set: Kinetics study of ACE inhibition (Michaelis-Menten and Lineweaver-Burk plots, HHL substrate). It counts as biochemical, rabbit. As to conditions: from plot of 1/Vmax against inhibitor concentration; read-out: Kiu (mM) (enzyme-inhibitor dissociation constant). As for the experimental part: Mode of enzyme inhibition, maximum initial velocity (Vmax), Michaelis-Menten constant (Km), inhibitory constant (Ki) and catalytic efficiency were determined using Michaeles-Menten and Lineweaver-Burk plots of 1/v versus 1/[S].
Enzyme activity was shown as nmol hippuric acid produced per min of enzymatic reaction. Michaelis-Menten and Lineweaver-Burk plots were created using GRAPHPAD PRISM 6.07 (GraphPad, Software Inc., San Diego, CA, USA) software. Vmax and Km were calculated using the same software. Kiu was calculated from the plot of 1/Vmax against inhibitor concentration at the intercept on the inhibitor concentration axis).

Data set [2] concerns the target T1, angiotensin-converting enzyme (ACE). The data set is described as follows: Peptide stability study: hydrolysis of peptides by ACE, RP-HPLC. It counts as in vitro ADME, rabbit. The following applies: 37 °C, peptide 4 mM; for metabolised at 0.5 h, 2.4 mM / metabolised at 1 h, 2.4 mM / metabolised at 2 h, 2.4 mM / metabolised at 3 h, 2.4 mM: rabbit, isolated angiotensin-converting enzyme (ACE), read-out: Cleavage (%); for metabolised at 1 h, 2.4 mM: incubation with ACE 1 h; for metabolised at 2 h, 2.4 mM: incubation with ACE 2 h. As for the experimental part: Peptide stability study was carried out using the method described by Forghani et al. and Yang, Marczak, Yokoo, Usui and Yoshikawa with modifications. Each peptide solution (225 µL), at a concentration of 4 mM, was incubated with 150 µl of ACE (100 mU/mL) at 37 °C and incubation time of 0, 0.5, 1, 2 and 3 h. Peptide samples were withdrawn at their respective incubation time separately and kept in ice prior to analysis by HPLC. A 20-µL sample was loaded onto a Hypersil GOLD C18 column (4.6 × 250 mm) attached to a LC 20AT apparatus (Shimadzu Co., Kyoto, Japan). The column was conditioned with eluent A (0.1% TFA in DW) and eluted with 100% eluent A from 0 to 10 min. The peptides were eluted with eluent B (0.1% TFA in CH3CN) with a gradient elution of 0–100% for 10–50 min. The absorbance was read at 215 nm.

Data set [3] has the same target. The data set is described as follows: ACE-inhibitory capacity of peptides with and without pre-incubation with ACE; IC50. The following applies: for IC50: unit given, not in Table 5, read-out: ACE Inhibition (IC50); for ACE-Inhibitory Capacity (%) Without Pre-Incubation: without pre-incubation with ACE. Format: biochemical, rabbit.
Where [4] appears, read: peptides generated from Stichopus horrens.

For CRQNTLGHNTQTSIAQ, the Ki on ACE (setting [4]) is 210 µM.

For the compound `CC(C)C[C@H](NC(=O)[C@H](CC(C)C)NC(=O)[C@H](C)NC(=O)[C@H](Cc1ccc(O)cc1)NC(=O)[C@H](Cc1c[nH]cn1)NC(=O)CNC(=O)[C@H](C)NC(=O)CNC(=O)[C@H](CCC(=O)O)NC(=O)[C@H](CCC(N)=O)NC(=O)[C@@H](NC(=O)CN)C(C)C)C(=O)O` [GVQEGAGHYALL] (H-GVQEGAGHYALL-OH; N-terminus and C-terminus assumed), the Ki in data set [1] was 3.18 mM. In addition, in data set [2] (incubation with ACE 0.5 h), the “Cleavage (%)” value was determined as 46% and the metabolised at 0.5 h, 2.4 mM was determined as 46 ± 1.5%. Moreover, in data set [2] (incubation with ACE 3 h), the “Cleavage (%)” value is given as 97% and the metabolised at 3 h, 2.4 mM was 97 ± 3.4%. Besides, in data set [2], the metabolised at 1 h, 2.4 mM was found to be 65 ± 2.6% and the metabolised at 2 h, 2.4 mM worked out at 86 ± 3.1%. In data set [3], the IC50 (commonly the concentration that inhibits the measured activity by half) was determined as 239 µM, the “ACE-Inhibitory Capacity (%) With Pre-Incubation” value is recorded as 75 ± 2.11% and the “ACE-Inhibitory Capacity (%) Without Pre-Incubation” value amounted to 70 ± 1.15%.

In the case of `C[C@H](NC(=O)[C@@H](N)Cc1c[nH]c2ccccc12)C(=O)N[C@@H](Cc1ccccc1)C(=O)N[C@@H](CO)C(=O)O` [WAFS] (H-WAFS-OH; N-terminus and C-terminus assumed), the Ki in data set [1] came to 2 mM. Further, in data set [2] (incubation with ACE 0.5 h), the “Cleavage (%)” value came to 43% and the metabolised at 0.5 h, 2.4 mM turned out to be 43 ± 2%. In addition, in data set [2] (incubation with ACE 3 h), the “Cleavage (%)” value is given as 68% and the metabolised at 3 h, 2.4 mM was found to be 68 ± 3.4%. In data set [2], the metabolised at 1 h, 2.4 mM worked out at 42 ± 1.6% and the metabolised at 2 h, 2.4 mM turned out to be 63 ± 3%. Besides, in data set [3], the 50% inhibitory concentration (IC50) came out at 202 µM, the “ACE-Inhibitory Capacity (%) With Pre-Incubation” value came to 56 ± 1.34% and the “ACE-Inhibitory Capacity (%) Without Pre-Incubation” value is on record as 55 ± 1.81%.

With SAAVGSP, on ACE (setting [4]), the Ki is 1570 µM.

In the case of `CC(C)C[C@H](NC(=O)[C@H](CC(C)C)NC(=O)[C@H](CC(C)C)NC(=O)[C@@H](N)Cc1ccc(O)cc1)C(=O)N[C@@H](CCCCN)C(=O)O` [YLLLK] (H-YLLLK-OH; N-terminus and C-terminus assumed), in data set [2] (incubation with ACE 0.5 h), the “Cleavage (%)” value came out at 91.7% and the metabolised at 0.5 h, 2.4 mM is 92 ± 2.8%. Besides, in data set [2] (incubation with ACE 3 h), the “Cleavage (%)” value was 94% and 94.3%; the metabolised at 3 h, 2.4 mM worked out at 94 ± 2.7%. Further, in data set [2], the metabolised at 1 h, 2.4 mM came to 93 ± 1.9% and the metabolised at 2 h, 2.4 mM is 94 ± 3%. Moreover, in data set [3], the half-maximal inhibitory concentration (IC50) amounted to 47 µM, the “ACE-Inhibitory Capacity (%) With Pre-Incubation” value stood at 80 ± 2.04% and the “ACE-Inhibitory Capacity (%) Without Pre-Incubation” value is 100 ± 2.99%.

As to VSRHFASYAN, the Ki at ACE (setting [4]) was 610 µM.

Consider WVYY, for which the Ki on ACE (ref Udenigwe, et al. 31) was 60 µM.

The values above are taken from paper PMC6843816, “Angiotensin Converting Enzyme (ACE)-Peptide Interactions: Inhibition Kinetics, In Silico Molecular Docking and Stability Study of Three Novel Peptides Generated from Palm Kernel Cake Proteins” (Biomolecules, 2019).
